Source: patent publication US8962608B2, “Cycloalkylnitrile pyrazole carboxamides as janus kinase inhibitors” (Merck Sharp & Dohme Corp., priority 2011, dated 2015)

Assays:
[1] = molecular target: JAK1 (recombinant purified GST-tagged catalytic domain) (Homo sapiens (Human), UniProt P23458); assay: biochemical;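 note: biochemical assay with HTRF read-out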
[2] = molecular target: JAK2 (recombinant purified GST-tagged catalytic domain) (Homo sapiens (Human), UniProt O60674); assay: biochemical;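 note: biochemical JAK kinase assay with HTRF detection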
Chain of JAK2 (recombinant purified GST-tagged catalytic domain) (O60674 849-1124): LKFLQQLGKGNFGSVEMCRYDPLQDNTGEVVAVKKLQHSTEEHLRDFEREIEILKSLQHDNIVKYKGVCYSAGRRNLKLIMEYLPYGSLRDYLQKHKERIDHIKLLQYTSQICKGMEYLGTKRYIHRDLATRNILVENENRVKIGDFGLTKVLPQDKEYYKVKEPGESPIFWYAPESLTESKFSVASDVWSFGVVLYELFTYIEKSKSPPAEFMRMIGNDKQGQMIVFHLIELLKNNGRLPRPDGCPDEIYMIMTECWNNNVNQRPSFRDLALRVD

Chain of JAK1 (recombinant purified GST-tagged catalytic domain) (P23458 875-1153): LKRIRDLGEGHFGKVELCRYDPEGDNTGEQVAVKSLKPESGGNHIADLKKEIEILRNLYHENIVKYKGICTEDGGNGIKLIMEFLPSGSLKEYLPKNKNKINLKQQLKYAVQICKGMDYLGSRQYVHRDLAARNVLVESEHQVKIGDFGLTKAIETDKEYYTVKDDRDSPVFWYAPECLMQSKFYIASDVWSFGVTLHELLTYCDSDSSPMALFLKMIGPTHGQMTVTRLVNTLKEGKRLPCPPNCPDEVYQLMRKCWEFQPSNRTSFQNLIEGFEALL

Structure (SMILES): N#C[C@H]1C[C@@H](NCC2(O)CC2)CC[C@@H]1n1cc(C(N)=O)c(Nc2ccc(C(F)(F)F)cc2)n1 (single isomer, unassigned) [Example 28-23, 1-[(1S,2S,4S or 1R,2R,4R)-2-cyano-4-{[(1-hydroxycyclo-propyl)methyl]amino}cyclo-hexyl]-3-{[4-(trifluoromethyl)phenyl]amino}-1H-pyrazole-4-carboxamide]
- IC50 [1]: 0.45 nM
- IC50 [2]: 23 nM

Structure (SMILES): CC(C)(O)C1CN([C@H]2CC[C@H](n3cc(C(N)=O)c(Nc4ccc(C(F)(F)F)cc4)n3)[C@@H](C#N)C2)C1 (single isomer, unassigned) [Example 28-28, 1-{(1S,2S,4S or 1R,2R,4R)-2-cyano-4-[3-(1-hydroxy-1-methylethyl)azetidin-1-yl]cyclohexyl}-3-{[4-(trifluoromethyl)phenyl]amino}-1H-pyrazole-4-carboxamide]
- IC50 [1]: 3 nM
- IC50 [2]: 77 nM

Structure (SMILES): N#C[C@H]1C[C@@H](N2C[C@@H]3[C@@H](CO)[C@@H]3C2)CC[C@@H]1n1cc(C(N)=O)c(Nc2ccc(C(F)(F)F)cc2)n1 (single isomer, unassigned) [Example 28-34, 1-{(1S,2S,4S or 1R,2R,4R)-2-cyano-4-[(1R,5S,6S or 1S,5R,6R)-6-(hydroxymethyl)-3-azabicyclo[3.1.0]hex-3-yl]cyclohexyl}-3-{[4-(trifluoromethyl)phenyl]amino}-1H-pyrazole-4-carboxamide]
- IC50 [1]: 0.6 nM
- IC50 [2]: 20 nM

Structure (SMILES): N#C[C@H]1C[C@H](NCC2(O)CC2)CC[C@@H]1n1cc(C(N)=O)c(Nc2ccc(C(F)(F)F)cc2)n1 (single isomer, unassigned) [Example 28-35, 1-[(1S,2S,4R or 1R,2R,4S)-2-cyano-4-{[(1-hydroxycyclo-propyl)methyl]amino}cyclo-hexyl]-3-{[4-(trifluoro-methyl)phenyl]amino}-1H-pyrazole-4-carboxamide]
- IC50 [1]: 1 nM
- IC50 [2]: 48 nM

Structure (SMILES): CN(C)[C@@H]1CC[C@H](n2cc(C(N)=O)c(Nc3ccc(Cl)c(F)c3)n2)[C@@H](C#N)C1 (single isomer, unassigned) [Example 28-38, 3-[(4-chloro-3-fluorophenyl)amino]-1-[(1S,2S,4R or 1R,2R,4S)-2-cyano-4-(dimethylamino)cyclohexyl]-1H-pyrazole-4-carboxamide]
- IC50 [1]: 7 nM
- IC50 [2]: 173 nM

Structure (SMILES): CN[C@H]1CC[C@H](n2cc(C(N)=O)c(Nc3ccc(Cl)cc3)n2)[C@@H](C#N)C1 (single isomer, unassigned) [Example 28-40, 3-[(4-chlorophenyl)amino]-1-[(1S,2S,4S or 1R,2R,4R)-2-cyano-4-(methylamino)cyclohexyl]-1H-pyrazole-4-carboxamide]
- IC50 [1]: 0.7 nM
- IC50 [2]: 16 nM

Structure (SMILES): CN(C)[C@H]1CC[C@H](n2cc(C(N)=O)c(Nc3ccc(Cl)c(F)c3)n2)[C@@H](C#N)C1 (single isomer, unassigned) [Example 28-41, 3-[(4-chloro-3-fluorophenyl)amino]-1-[(1S,2S,4S or 1R,2R,4R)-2-cyano-4-(dimethylamino)cyclohexyl]-1H-pyrazole-4-carboxamide]
- IC50 [1]: 2 nM
- IC50 [2]: 58 nM

Structure (SMILES): CN[C@@H]1CC[C@H](n2cc(C(N)=O)c(Nc3ccc(Cl)cc3)n2)[C@@H](C#N)C1 (single isomer, unassigned) [Example 28-42, 3-[(4-chlorophenyl)amino]-1-[(1S,2S,4R or 1R,2R,4S)-2-cyano-4-(methylamino)cyclohexyl]-1H-pyrazole-4-carboxamide]
- IC50 [1]: 2 nM
- IC50 [2]: 36 nM

Structure (SMILES): C[C@H](N[C@@H]1CC[C@H](n2cc(C(N)=O)c(Nc3ccc(Cl)c(F)c3)n2)[C@@H](C#N)C1)C1CC1 (single isomer, unassigned) [Example 28-48, 3-[(4-chloro-3-fluorophenyl)amino]-1-[(1S,2S,4R or 1R,2R,4S)-2-cyano-4-{[(1S or 1R)-1-cyclopropylethyl]amino}cyclo-hexyl]-1H-pyrazole-4-carboxamide]
- IC50 [1]: 8 nM
- IC50 [2]: 215 nM
